Experimental data reported in ChEMBL document CHEMBL3751688, “Synthesis, in vitro antimycobacterial evaluation and docking studies of some new 5,6,7,8-tetrahydropyrido[4',3':4,5]thieno[2,3-d]pyrimidin-4(3H)-one schiff bases” (Bioorg Med Chem Lett, 2016).
Converted amounts (≈) assume the structure as drawn.

Key:
[1] = system: Mycobacterium tuberculosis; assay: Antibacterial activity against Mycobacterium tuberculosis; type: functional
[2] = system: Staphylococcus aureus; assay: Antibacterial activity against Staphylococcus aureus MTCC 96 after 24 hrs by broth microdilution technique; type: functional; settings: MTCC 96, 24 h
[3] = system: Bacillus subtilis; assay: Antibacterial activity against Bacillus subtilis MTCC 441 after 24 hrs by broth microdilution technique; type: functional; settings: MTCC 441, 24 h
[4] = system: Escherichia coli; assay: Antibacterial activity against Escherichia coli MTCC 443 after 24 hrs by broth microdilution technique; type: functional; settings: MTCC 443, 24 h
[5] = system: Klebsiella pneumoniae; assay: Antibacterial activity against Klebsiella pneumoniae MTCC 109 after 24 hrs by broth microdilution technique; type: functional; settings: MTCC 109, 24 h
[6] = system: Mycobacterium tuberculosis; assay: Antimycobacterial activity against Mycobacterium tuberculosis H37Rv at 113 uM after 3 days by luciferase reporter phage assay; type: functional; settings: 72 h
[7] = system: Mycobacterium tuberculosis; assay: Antimycobacterial activity against Mycobacterium tuberculosis H37Rv at 224 uM after 3 days by luciferase reporter phage assay; type: functional; settings: 72 h
[8] = system: Mycobacterium tuberculosis; assay: Antimycobacterial activity against Mycobacterium tuberculosis H37Rv at 455 uM after 3 days by luciferase reporter phage assay; type: functional; settings: 72 h
[9] = system: Mycobacterium tuberculosis; assay: Antimycobacterial activity against Mycobacterium tuberculosis H37Rv after 14 days by broth microdilution method; type: functional; settings: 336 h
[10] = system: Mycobacterium tuberculosis; assay: Antimycobacterial activity against Mycobacterium tuberculosis H37Rv after 21 days by broth microdilution method; type: functional; settings: 504 h
[11] = target: T1, Pantothenate synthetase (Mycobacterium tuberculosis, UniProt P9WIL5); assay: Inhibition of Mycobacterium tuberculosis pantothenate synthetase
T1 sequence (P9WIL5 whole entry): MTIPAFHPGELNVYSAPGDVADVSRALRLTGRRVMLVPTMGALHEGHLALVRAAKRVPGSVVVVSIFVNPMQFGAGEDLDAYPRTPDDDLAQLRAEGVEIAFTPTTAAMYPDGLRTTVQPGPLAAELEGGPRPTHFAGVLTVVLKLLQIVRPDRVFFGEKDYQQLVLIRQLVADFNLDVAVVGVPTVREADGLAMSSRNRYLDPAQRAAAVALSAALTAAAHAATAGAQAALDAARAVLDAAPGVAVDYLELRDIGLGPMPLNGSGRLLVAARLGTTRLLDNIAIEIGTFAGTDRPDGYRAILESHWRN

[12] = system: Mycobacterium tuberculosis; assay: Antimycobacterial activity against Mycobacterium tuberculosis H37Rv at 117 uM after 3 days by luciferase reporter phage assay; type: functional; settings: 72 h
[13] = system: Mycobacterium tuberculosis; assay: Antimycobacterial activity against Mycobacterium tuberculosis H37Rv at 235 uM after 3 days by luciferase reporter phage assay; type: functional; settings: 72 h
[14] = system: Mycobacterium tuberculosis; assay: Antimycobacterial activity against Mycobacterium tuberculosis H37Rv at 470 uM after 3 days by luciferase reporter phage assay; type: functional; settings: 72 h

Row | SMILES | MIC [2] [µM] | MIC [3] [µM] | MIC [4] [µM] | MIC [5] [µM] | also measured
1 | Cc1nc2ccccn2c1C(=O)N/N=C/c1ccc(C(F)(F)F)cc1 |  |  |  |  | MIC [1]: 9.01 µM (≈ 3.12 µg/mL)
2 | Cc1nc2sc3c(c2c(=O)n1/N=C/c1ccc(C#N)cc1)CCN(Cc1ccccc1)C3 | 34 (≈ 14.9 µg/mL) | 34 (≈ 14.9 µg/mL) | 15 (≈ 6.59 µg/mL) | 70 (≈ 30.8 µg/mL) | inhibition at 113 µM [6]: 0%; inhibition at 224 µM [7]: 6.5%; inhibition at 455 µM [8]: 9.8%; MIC [9]: 20 µM (≈ 8.79 µg/mL); MIC [10]: 20 µM (≈ 8.79 µg/mL)
3 | Cc1nc2sc3c(c2c(=O)n1/N=C/c1ccccc1)CCN(Cc1ccccc1)C3 | 74 (≈ 30.7 µg/mL) | 74 (≈ 30.7 µg/mL) | 74 (≈ 30.7 µg/mL) | 149 (≈ 61.8 µg/mL) | 
4 | O=c1c2c3c(sc2ncn1/N=C/c1ccccc1[N+](=O)[O-])CN(Cc1ccccc1)CC3 | 139 (≈ 61.9 µg/mL) | 139 (≈ 61.9 µg/mL) | 139 (≈ 61.9 µg/mL) | 139 (≈ 61.9 µg/mL) | 
5 | NC(=O)c1c(NC(=O)c2ccc([N+](=O)[O-])s2)sc2c1CCN(Cc1ccccc1)C2 |  |  |  |  | IC50 [11]: 1.13 µM
6 | Cc1nc2sc3c(c2c(=O)n1/N=C/c1cccs1)CCN(Cc1ccccc1)C3 | 297 (≈ 125 µg/mL) | 297 (≈ 125 µg/mL) | 297 (≈ 125 µg/mL) | 297 (≈ 125 µg/mL) | 
7 | O=c1c2c3c(sc2ncn1/N=C/c1ccc(O)cc1)CN(Cc1ccccc1)CC3 | 149 (≈ 62.1 µg/mL) | 149 (≈ 62.1 µg/mL) | 149 (≈ 62.1 µg/mL) | 149 (≈ 62.1 µg/mL) | 
8 | O=c1c2c3c(sc2ncn1/N=C/c1ccc(F)cc1)CN(Cc1ccccc1)CC3 | 73 (≈ 30.6 µg/mL) | 73 (≈ 30.6 µg/mL) | 73 (≈ 30.6 µg/mL) | 147 (≈ 61.5 µg/mL) | 
9 | Cc1nc2sc3c(c2c(=O)n1/N=C/c1ccccc1[N+](=O)[O-])CCN(Cc1ccccc1)C3 | 135 (≈ 62 µg/mL) | 135 (≈ 62 µg/mL) | 135 (≈ 62 µg/mL) | 135 (≈ 62 µg/mL) | 
10 | N#Cc1ccc(/C=N/n2cnc3sc4c(c3c2=O)CCN(Cc2ccccc2)C4)cc1 | 35 (≈ 14.9 µg/mL) | 35 (≈ 14.9 µg/mL) | 16 (≈ 6.81 µg/mL) | 72 (≈ 30.6 µg/mL) | inhibition at 117 µM [12]: 0%; inhibition at 235 µM [13]: 9.7%; inhibition at 470 µM [14]: 69.9%; MIC [9]: 9 µM (≈ 3.83 µg/mL); MIC [10]: 9 µM (≈ 3.83 µg/mL)
11 | O=c1c2c3c(sc2ncn1/N=C/c1ccc(Cl)cc1)CN(Cc1ccccc1)CC3 | 34 (≈ 14.8 µg/mL) | 34 (≈ 14.8 µg/mL) | 16 (≈ 6.96 µg/mL) | 71 (≈ 30.9 µg/mL) | MIC [9]: 20 µM (≈ 8.7 µg/mL); MIC [10]: 20 µM (≈ 8.7 µg/mL)
12 | COc1cc(/C=N/n2c(C)nc3sc4c(c3c2=O)CCN(Cc2ccccc2)C4)cc(OC)c1OC | 248 (≈ 125 µg/mL) | 248 (≈ 125 µg/mL) | 248 (≈ 125 µg/mL) | 248 (≈ 125 µg/mL) | 
13 | COc1ccc(/C=N/n2c(C)nc3sc4c(c3c2=O)CCN(Cc2ccccc2)C4)cc1 | 69 (≈ 30.7 µg/mL) | 33 (≈ 14.7 µg/mL) | 33 (≈ 14.7 µg/mL) | 69 (≈ 30.7 µg/mL) | 
14 | O=c1c2c3c(sc2ncn1/N=C/c1ccccc1)CN(Cc1ccccc1)CC3 | 77 (≈ 30.8 µg/mL) | 77 (≈ 30.8 µg/mL) | 77 (≈ 30.8 µg/mL) | 155 (≈ 62.1 µg/mL) | 
